Laboratory results as given in US20250313563A1, “GLYCOGEN SYNTHASE KINASE 3 INHIBITORS AND USES THEREOF” (The Broad Institute, Inc., priority 2022, published 2025).
Like-named read-outs stand apart in the source and are kept apart here.

Columns and labels:
[1] = biological target: GSK3α (GST-full length GSK3α) (Homo sapiens (Human), UniProt P49840); test: GSK3α TR-FRET kinase assay; assay type: biochemical
Outline: (§1)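 Full-length GST-tagged human enzyme (1 nM) is exposed to test compound for 30 min before substrates are added. Phosphorylation of a primed biotinylated glycogen synthase peptide proceeds 100 min at room temperature at low ATP (4 μM α; 2 μM β) or high ATP (1 mM). Product is quantified by TR-FRET.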

[2] = biological target: GSK3b (GST-full length GSK3b) (Homo sapiens (Human), UniProt P49841); test: GSK3b TR-FRET kinase assay; assay type: biochemical
Sequence of GSK3b (GST-full length GSK3b) (P49841 whole entry): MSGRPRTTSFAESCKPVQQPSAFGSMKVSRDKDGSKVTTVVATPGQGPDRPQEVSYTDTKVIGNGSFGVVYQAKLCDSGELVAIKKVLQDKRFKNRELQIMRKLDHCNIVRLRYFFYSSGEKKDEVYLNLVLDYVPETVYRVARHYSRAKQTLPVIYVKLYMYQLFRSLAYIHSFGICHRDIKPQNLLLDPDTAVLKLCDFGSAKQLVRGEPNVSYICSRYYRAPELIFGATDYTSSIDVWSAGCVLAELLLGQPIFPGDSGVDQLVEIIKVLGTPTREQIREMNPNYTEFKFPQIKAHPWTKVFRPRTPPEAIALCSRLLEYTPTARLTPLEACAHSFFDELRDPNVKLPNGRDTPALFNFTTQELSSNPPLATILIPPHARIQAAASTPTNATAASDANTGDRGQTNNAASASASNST
Outline: as §1

[3] = 1 nM GSK3α, 4 μM ATP, 30 minute preincubation, read-out: GSK3-A TR-FRET BIOCHEMICAL (TR-FRET), IC50
[4] = 1 nM GSK3b, 2 μM ATP, 30 minute preincubation, read-out: GSK3-B TR-FRET BIOCHEMICAL (TR-FRET), IC50
[5] = 1 nM GSK3α, 4 μM ATP, 30 minute preincubation, Table 16, read-out: GSK3-A TR-FRET BIOCHEMICAL (TR-FRET)
[6] = 1 nM GSK3b, 2 μM ATP, 30 minute preincubation, Table 16, read-out: GSK3-B TR-FRET BIOCHEMICAL (TR-FRET)
[7] = 1 nM GSK3α, 4 μM ATP, 30 minute preincubation, Table 16, read-out: GSK3-A TR-FRET BIOCHEMICAL (TR-FRET), IC50
[8] = 1 nM GSK3b, 2 μM ATP, 30 minute preincubation, Table 16, read-out: GSK3-B TR-FRET BIOCHEMICAL (TR-FRET), IC50
[9] = read-out: GSK3-A (TR-FRET 1 mM ATP), GMean, IC50, 1 mM ATP, geometric mean
[10] = read-out: GSK3-B (TR-FRET 1 mM ATP), GMean, IC50, 1 mM ATP, geometric mean

Sequence of GSK3α (GST-full length GSK3α) (P49840 whole entry): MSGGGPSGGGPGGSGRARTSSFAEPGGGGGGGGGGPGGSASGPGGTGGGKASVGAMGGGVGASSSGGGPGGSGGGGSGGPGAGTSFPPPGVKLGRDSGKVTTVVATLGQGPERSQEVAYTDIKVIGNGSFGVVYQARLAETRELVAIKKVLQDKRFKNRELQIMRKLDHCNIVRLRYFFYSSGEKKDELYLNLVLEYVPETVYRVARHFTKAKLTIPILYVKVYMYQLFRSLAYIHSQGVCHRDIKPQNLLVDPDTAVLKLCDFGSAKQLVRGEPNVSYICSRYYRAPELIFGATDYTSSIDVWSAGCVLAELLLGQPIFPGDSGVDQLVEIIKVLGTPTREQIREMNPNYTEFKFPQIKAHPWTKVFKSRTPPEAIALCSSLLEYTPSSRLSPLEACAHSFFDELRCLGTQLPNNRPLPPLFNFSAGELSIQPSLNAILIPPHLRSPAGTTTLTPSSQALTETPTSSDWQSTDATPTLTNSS

SMILES	IC50 [1, 5]	IC50 [2, 6]	other results
CCC1(c2cccc(C(F)(F)F)c2)C2=C(Nc3n[nH]cc31)C(C)CNC2=O (stereo not shown) [Compound 945384]			IC50 [1, 3]: 1000 to 5000 nM; IC50 [2, 4]: > 5000 nM
CC[C@]1(c2cccc(C(F)(F)F)c2)C2=C(Nc3n[nH]cc31)[C@H](C)CNC2=O [Compound 945385]			IC50 [1, 3]: > 5000 nM; IC50 [2, 4]: > 5000 nM
CC1(C)CC(=O)C2=C(C1)Nc1n[nH]cc1C21CCC(C(=O)N2CCCC2)CC1 (stereo not shown) [Compound 945394]	100 to 1000 nM	1000 to 5000 nM	
CN(C)C(=O)C1CCC2(CC1)C1=C(CC(C)(C)CC1=O)Nc1n[nH]cc12 (stereo not shown) [Compound 945395]			IC50 [1, 7]: 100 to 1000 nM; IC50 [2, 8]: 1000 to 5000 nM
CC1(C)CC(=O)C2=C(C1)Nc1n[nH]cc1C21CCC(C(=O)N2CCCC2)CC1 (stereo not shown) [Compound 945396]	100 to 1000 nM	100 to 1000 nM	
CNC(=O)C1CCC2(CC1)C1=C(CC(C)(C)CC1=O)Nc1n[nH]cc12 (stereo not shown) [Compound 945397]	100 to 1000 nM	100 to 1000 nM	
CC1(C)CC(=O)C2=C(C1)Nc1n[nH]cc1C21COC2(CN(C(=O)C3CCOCC3)C2)C1 (stereo not shown) [Compound 945407]			IC50 [1, 3]: ≤ 100 nM; IC50 [2, 4]: 100 to 1000 nM
CCC1(c2cccc(-c3ccnc(C)c3OC)c2)C2=C(CC(C)(C)CC2=O)Nc2n[nH]cc21 (stereo not shown) [Compound 945458]	≤ 100 nM	≤ 100 nM	
CCC1(c2cccc(-c3cn[nH]c3)c2)C2=C(CC(C)(C)NC2=O)Nc2n[nH]c(C)c21 (stereo not shown) [Compound 945459]			IC50 [1, 3]: ≤ 100 nM; IC50 [2, 4]: ≤ 100 nM
CCC1(c2cccc(-c3cn(C)nc3C)c2)C2=C(CC(C)(C)NC2=O)Nc2n[nH]c(C)c21 (stereo not shown) [Compound 945460]			IC50 [1, 3]: ≤ 100 nM; IC50 [2, 4]: ≤ 100 nM
CCC1(c2cccc(-c3ccncc3C)c2)C2=C(CC(C)(C)NC2=O)Nc2n[nH]cc21 (stereo not shown) [Compound 945461]			IC50 [1, 3]: ≤ 100 nM; IC50 [2, 4]: ≤ 100 nM
CCC1(c2cccc(-c3c(C)nn(C)c3C)c2)C2=C(CC(C)(C)NC2=O)Nc2n[nH]cc21 (stereo not shown) [Compound 945462]			IC50 [1, 3]: ≤ 100 nM; IC50 [2, 4]: ≤ 100 nM
CCC1(c2cccc(S(=O)(=O)C(C)C)c2)C2=C(CC(C)(C)NC2=O)Nc2n[nH]cc21 (stereo not shown) [Compound 945464]			IC50 [1, 3]: ≤ 100 nM; IC50 [2, 4]: ≤ 100 nM
CCC1(c2cccc(N(C)C3CC3)c2)C2=C(CC(C)(C)CC2=O)Nc2n[nH]cc21 (stereo not shown) [Compound 945466]	100 to 1000 nM	1000 to 5000 nM	
CCC1(c2cccc(-c3cc(C)ncc3OC)c2)C2=C(CC(C)(C)CC2=O)Nc2n[nH]cc21 (stereo not shown) [Compound 945468]	≤ 100 nM	100 to 1000 nM	
CC[C@@]1(c2cccc(-c3ccncc3CO)c2)C2=C(CC(C)(C)CC2=O)Nc2n[nH]cc21 [Compound 945469]	≤ 100 nM	≤ 100 nM	
CC[C@]1(c2cccc(-c3cn(C)nc3C)c2)C2=C(CC(C)(C)NC2=O)Nc2n[nH]cc21 [Compound 945470]			IC50 [1, 3]: ≤ 100 nM; IC50 [1, 9]: 100 to 1000 nM; IC50 [2, 4]: ≤ 100 nM; IC50 [2, 10]: 1000 to 5000 nM
CC[C@]1(c2cccc(-c3ccncc3OC)c2)C2=C(CC(C)(C)CC2=O)Nc2n[nH]cc21 [Compound 945471]	1000 to 5000 nM	1000 to 5000 nM	IC50 [1, 9]: > 5000 nM; IC50 [2, 10]: > 5000 nM
CC[C@]1(c2cccc(N(C)c3ccc(C(F)(F)F)nc3)c2)C2=C(CC(C)(C)CC2=O)Nc2n[nH]cc21 [Compound 945474]	≤ 100 nM	100 to 1000 nM	
CC1(C)CC(=O)C2=C(C1)Nc1n[nH]cc1C21CN(c2ccccn2)C1 [Compound 945477]			IC50 [1, 7]: 1000 to 5000 nM; IC50 [2, 8]: 1000 to 5000 nM
CC1(C)CC(=O)C2=C(C1)Nc1n[nH]cc1C21CN(c2ccc(C(F)(F)F)cc2)C1 [Compound 945478]	100 to 1000 nM	100 to 1000 nM	
CC[C@@]1(c2cccc(-c3cn(C)nc3C)c2)C2=C(CC(C)(C)NC2=O)Nc2n[nH]cc21 [Compound 945480]			IC50 [1, 3]: 1000 to 5000 nM; IC50 [2, 4]: > 5000 nM
CCC1(c2cccc(-c3ccncc3OC)c2)C2=C(CC(C)(C)CC2=O)Nc2n[nH]cc21 (stereo not shown) [Compound 945481]	≤ 100 nM	≤ 100 nM	IC50 [1, 9]: ≤ 100 nM; IC50 [2, 10]: 100 to 1000 nM
CC1(C)CC(=O)C2=C(C1)Nc1n[nH]cc1[C@]21CCCN(S(=O)(=O)Cc2ccccc2)CC1 [Compound 945483]	100 to 1000 nM	100 to 1000 nM	
CC[C@@]1(c2cccc(-c3ccnc(C)c3)c2)C2=C(CC(C)(C)[C@H](F)C2=O)Nc2n[nH]cc21 [Compound 945486]	1000 to 5000 nM	> 5000 nM	
CCC1(c2cccc(-c3ccncc3C)c2)C2=C(CC(C)(C)CC2=O)Nc2n[nH]c(C(F)(F)F)c21 (stereo not shown) [Compound 945527]	≤ 100 nM	≤ 100 nM	IC50 [1, 9]: ≤ 100 nM; IC50 [2, 10]: 100 to 1000 nM
CCC1(c2cccc(-c3ccncc3F)c2)C2=C(CC(C)(C)CC2=O)Nc2n[nH]c(C(F)(F)F)c21 (stereo not shown) [Compound 945528]	≤ 100 nM	≤ 100 nM	IC50 [1, 9]: ≤ 100 nM; IC50 [2, 10]: 100 to 1000 nM
CCC1(c2cccc(-c3c(C)nn(C)c3C)c2)C2=C(CC(C)(C)NC2=O)Nc2n[nH]c(C)c21 (stereo not shown) [Compound 945598]			IC50 [1, 3]: ≤ 100 nM; IC50 [2, 4]: ≤ 100 nM

The next lines start with results.

IC50 [1, 5]	IC50 [2, 6]	SMILES	other results
≤ 100 nM	≤ 100 nM	CCC1(c2cccc(-c3ccnn3C)c2)C2=C(CC(C)(C)CC2=O)Nc2n[nH]c(C(F)(F)F)c21 (stereo not shown) [Compound 945531]	IC50 [1, 9]: ≤ 100 nM; IC50 [2, 10]: 100 to 1000 nM
≤ 100 nM	≤ 100 nM	CCC1(c2cccc(-c3cc(C)nn3C)c2)C2=C(CC(C)(C)CC2=O)Nc2n[nH]c(C(F)(F)F)c21 (stereo not shown) [Compound 945532]	IC50 [1, 9]: ≤ 100 nM; IC50 [2, 10]: 100 to 1000 nM
≤ 100 nM	≤ 100 nM	CCC1(c2cccc(-c3cnn4c3CCCC4)c2)C2=C(CC(C)(C)CC2=O)Nc2n[nH]cc21 (stereo not shown) [Compound 945543]	IC50 [1, 9]: 100 to 1000 nM; IC50 [2, 10]: 1000 to 5000 nM
100 to 1000 nM	> 5000 nM	CCC1(c2cccc(-c3cnn4c3CCCC4)c2)C2=C(CC(C)(C)CC2=O)Nc2n[nH]cc21 (stereo not shown) [Compound 945544]	
1000 to 5000 nM	> 5000 nM	CC[C@@]1(c2cccc(-c3cn(C)nc3C)c2)C2=C(CC(C)(C)CC2=O)Nc2n[nH]cc21 [Compound 945545]	
≤ 100 nM	≤ 100 nM	CC[C@]1(c2cccc(-c3cn(C)nc3C)c2)C2=C(CC(C)(C)CC2=O)Nc2n[nH]cc21 [Compound 945546]	IC50 [1, 9]: ≤ 100 nM; IC50 [2, 10]: 100 to 1000 nM
1000 to 5000 nM	> 5000 nM	CC1(C)CC(=O)C2=C(C1)Nc1n[nH]cc1[C@@]21CCCc2c(-c3ccncc3)cccc21 [Compound 945547]	
≤ 100 nM	≤ 100 nM	CC1(C)CC(=O)C2=C(C1)Nc1n[nH]cc1[C@]21CCCc2c(-c3ccncc3)cccc21 [Compound 945548]	
≤ 100 nM	≤ 100 nM	Cc1cc(-c2cccc3c2CCC[C@]32C3=C(CC(C)(C)CC3=O)Nc3n[nH]cc32)ccn1 [Compound 945549]	
100 to 1000 nM	> 5000 nM	Cc1cc(-c2cccc3c2CCC[C@@]32C3=C(CC(C)(C)CC3=O)Nc3n[nH]cc32)ccn1 [Compound 945550]	
≤ 100 nM	≤ 100 nM	Cn1nccc1-c1cccc2c1CCC[C@]21C2=C(CC(C)(C)CC2=O)Nc2n[nH]cc21 [Compound 945551]	
100 to 1000 nM	> 5000 nM	Cn1nccc1-c1cccc2c1CCC[C@@]21C2=C(CC(C)(C)CC2=O)Nc2n[nH]cc21 [Compound 945552]	
100 to 1000 nM	1000 to 5000 nM	CCc1cc(N(C)c2cccc(C3(CC)C4=C(CC(C)(C)CC4=O)Nc4n[nH]cc43)c2)ccn1 (stereo not shown) [Compound 945600]	
